How the values were obtained:
HDP cells [1] = test: In vitro scratch wound recovery assay; assay type: cell-based, human
Protocol: No. BA-045855; Sartorius AG, […], Germany). […] Sartorius AG), following the manufacturer's instructions. Detached cells were removed by washing twice with PBS (pH 7.4). […] All treatments were performed in triplicate, including a vehicle control. […] Wound closure was quantified using the Incucyte® Scratch Wound Analysis Software Module, which calculates relative wound density (%) by comparing cell density within the wound area to that of the surrounding monolayer, providing an objective measure of cell migration and proliferation over time.

Lef-1 = test: Western blot of dorsal skin; assay type: in vivo, C57BL/6J mice; settings: 15 days post-treatment; minoxidil 1% topical, finasteride 1 mg/kg oral; neither significant
Protocol: (§1) To assess protein expression levels in skin and liver tissues, samples were lysed using M-PER^TM Mammalian Protein Extraction Reagent (Thermo Fisher Scientific) supplemented with a 1× working concentration of Xpert Protease Inhibitor Cocktail Solution (GenDEPOT, Barker, TX, USA), which included 50 μM PMSF, 10 μM Pepstatin A, 20 μM Leupeptin, 100 μM Benzamidine, and 50 μM Bestatin. The lysates were incubated on ice for 30 min and centrifuged at 12,000× g for 10 min at 4 °C to remove debris. The supernatants were collected, and total protein concentrations were determined using the Pierce^TM BCA Protein Assay Kit (Thermo Fisher Scientific).
(§2) Equal amounts of protein (20–30 μg) were loaded onto 10% SDS–polyacrylamide gels and electrophoresed using a Bio-Rad Mini-PROTEAN Tetra System with the Tris–Glycine–SDS running buffer. A pre-stained molecular weight marker (Precision Plus Protein^TM Dual Color Standards, Bio-Rad) was used as a reference. Proteins were then transferred to PVDF membranes (Immobilon®-P, Millipore, Burlington, MA, USA) using the wet transfer method with the Tris–Glycine buffer containing 20% methanol at 0.2 A for 120 min at 4 °C.
(§3) Membranes were blocked with 5% skim milk in TBST buffer (20 mM Tris–HCl, 150 mM NaCl, 0.2% Tween 20, pH 7.4) for 1 h at room temperature and incubated overnight at 4 °C with one of the following primary antibodies diluted at 1:1000: anti-HSP90 (Santa Cruz Biotechnology, sc-13119, Dallas, TX, USA), anti-β-catenin (Cell Signaling Technology, #8480S, Danvers, MA, USA), anti-Lef-1 (Cell Signaling Technology, #2230S, Danvers, MA, USA), anti-Akr1c21 (Invitrogen, PA5-36572, Carlsbad, CA, USA), or anti-Dhrs9 (MyBioSource, MBS9125625, San Diego, CA, USA). Each antibody was applied to separate membranes to avoid cross-reactivity and ensure target specificity.
(§4) After primary antibody incubation, membranes were washed four times for 10 min each with TBST at 50 rpm on a shaker, followed by incubation with HRP-conjugated secondary antibodies (Thermo Fisher Scientific) diluted 1:3000 for 1 h at room temperature. The membranes were then washed three times for 5 min each with TBST under the same conditions. Protein bands were visualized using the enhanced chemiluminescence (ECL) reagent (Bio-Rad) and imaged using the iBright^TM CL1500 Imaging System (Thermo Fisher Scientific). Densitometric analysis was performed using the software ImageJ (NIH), and band intensities were normalized to HSP90 expression to ensure consistent protein quantification across all samples.

β-catenin = test: Western blot of dorsal skin; assay type: in vivo, C57BL/6J mice; settings: 15 days post-treatment; minoxidil 1% topical, finasteride 1 mg/kg oral
Protocol: as §1, §2, §3, §4

[2] = test system: CCD-986sk dermal fibroblasts; test: In vitro cell proliferation assay (WST-1)
HDP cells [3] = test: In vitro cell proliferation assay (WST-1); assay type: cell-based, human
HaCaT keratinocytes = test: In vitro cell proliferation assay (WST-1)
[4] = test system: testosterone-induced AGA mouse model; test: In vivo hair regrowth efficacy; set-up: species or system C57BL/6J mice; settings: finasteride 1 mg/kg oral; for hair regrowth (coverage of the telogen area) / telogen-to-anagen conversion (telogen area transitioning): day 6; for hair regrowth (coverage of the telogen area) / telogen-to-anagen conversion (telogen area transitioning) / anagen area / hair regrowth / increase in hair follicle length compared to the untreated group / increase in hair weight compared to the untreated group: minoxidil 1% topical; for telogen-to-anagen conversion (telogen area transitioning): once daily
Protocol: On day 6, dorsal hair was removed from all mice. All mice were anesthetized using 3% isoflurane in 100% oxygen at a flow rate of 0.8 L/min, and the suppression of deep pedal reflexes was confirmed in the mice. Then, the desired dorsal region was shaved using electric clippers, followed by the application of rosin wax. After 2 min, the rosin wax was removed with the help of adhesive tape. The application of rosin wax was repeated one more time to completely remove the few remaining hairs.
Testosterone-treated mice were then randomly assigned to six groups (n = 6 per group). The first group served as the negative control and only received the vehicle.
Hair regrowth was visually monitored and photographed on days 0, 3, 6, 9, 12, and 15. Regrowth progression was quantitatively assessed using the software ImageJ (version 1.54p; National Institutes of Health, Bethesda, MD, USA) by measuring the areas corresponding to telogen-phase skin (pink), anagen transition zones (black), and fully covered hair regions. On day 15, the regrown dorsal hair was trimmed and weighed using an analytical balance to assess total hair mass. To evaluate hair follicle length, mice were first anesthetized using 3% isoflurane in 100% oxygen at a flow rate of 0.8 L/min to minimize movement and distress. The dorsal skin area was then cleaned with 70% ethanol to prevent contamination. Using sterile fine-tipped forceps, approximately 5–20 hairs were grasped close to the skin surface and swiftly plucked in the direction of hair growth to minimize follicular damage. Only hair shafts with intact follicular bulbs were selected for analysis. This procedure was repeated at three distinct dorsal sites per animal to obtain a representative sampling of hair regrowth. Finally, the lengths of selected hair follicles were measured microscopically.

Akr1c21 = test: Western blot of liver tissue; assay type: in vivo, C57BL/6J mice; settings: 15 days post-treatment, minoxidil 1% topical, finasteride 1 mg/kg oral
Protocol: as §1, §2, §3, §4

Dhrs9 = test: Western blot of liver tissue; assay type: in vivo, C57BL/6J mice; settings: 15 days post-treatment, minoxidil 1% topical, finasteride 1 mg/kg oral
Protocol: as §1, §2, §3, §4

DHT = test: Plasma DHT level (ELISA); assay type: in vivo, C57BL/6J mice; settings: AGA mice; minoxidil 1% topical, finasteride 1 mg/kg oral
Protocol: Blood samples were collected in heparinized tubes and centrifuged at 13,000× g for 5 min at 4 °C to isolate plasma. The plasma was stored at −80 °C until analysis for testosterone and DHT concentrations.
Plasma samples collected after the final dose of once-daily treatments were used to quantify serum testosterone and DHT levels using commercial ELISA kits: the Mouse Testosterone ELISA Kit and Mouse DHT ELISA Kit (LifeSpan BioSciences, Inc., Seattle, WA, USA). All assays were conducted following the manufacturer’s protocols.

liver tissue = test: Safety observation and liver H&E histology after 15-day treatment; assay type: in vivo, C57BL/6J mice; settings: mice, oral BSE or finasteride

Compound	Lef-1 expression in dorsal skin (Lef-1)	β-catenin expression in dorsal skin (β-catenin)	hair regrowth (coverage of the telogen area) [4] [%]	telogen-to-anagen conversion (telogen area transitioning) [4] [%]	anagen area ([4]; day 9) [%]	hair regrowth ([4]; day 9) [%]	hair regrowth ([4]; day 15) [%]	increase in hair follicle length compared to the untreated group ([4]; day 15) [fold]	increase in hair weight compared to the untreated group ([4]; day 15) [%]	hepatic Akr1c21 protein expression (Akr1c21)	hepatic Dhrs9 protein expression (Dhrs9)	reduction of plasma DHT compared to the untreated control (DHT)	also measured
Nc1cc(N2CCCCC2)nc(N)[n+]1[O-] [minoxidil]	positive trend	significantly restored	0.7	65.0	69.8	4.79	95.0	2.24	82.5	no significant effect	no significant effect	no detectable effect	scratch wound closure (HDP cells [1]; 0.1 µg/mL, 16 h): 68.8%; scratch wound closure (HDP cells [1]; 0.1 µg/mL, 20 h): 77.7%; scratch wound closure (HDP cells [1]; 0.1 µg/mL, 24 h): 94.7%; scratch wound closure (HDP cells [1]; 1 µg/mL, 16 h): 49.2%; scratch wound closure (HDP cells [1]; 25 µg/mL, 16 h): 29.2%; concentration at which proliferation decreased (dose-dependent cytotoxicity) [2]: ≥ 10000 ng/mL; increase in cell proliferation ([2]; 0.5 µg/mL): 184%; increase in cell proliferation ([2]; 1 µg/mL): 173%; proliferation at lower concentrations ([2]; 0.01–0.1 µg/mL): significantly enhanced proliferation; concentration above which proliferation markedly declined (HDP cells [3]): above 10 µg/mL; concentration above which cytotoxic effects (decreased cell viability) were seen (HaCaT keratinocytes): above 10 µg/mL
CC(C)(C)NC(=O)[C@H]1CC[C@H]2[C@@H]3CC[C@H]4NC(=O)C=C[C@]4(C)[C@H]3CC[C@]12C [finasteride]	no such trend	significantly restored	7.76	85.8	93.1	54.2	99.0	3.00	165	markedly upregulated	markedly upregulated	2.38 fold	physical abnormalities during treatment (liver tissue): no physical abnormalities; telogen area ([4]; day 9): 6.94%
